In one experiment the test system is ABUTH. Nature of the experiment: Greenhouse herbicidal effectiveness, ABUTH. Particulars: for % inhibition ABUTH (14 DAT) / % inhibition ABUTH (20 DAT): oxalate/oxalic acid alone, Table 44A; for efficacy ABUTH: Table 19A, 16 days after treatment; for inhibition at 75 g/ha / inhibition at 100 g/ha / inhibition at 150 g/ha / inhibition at 200 g/ha: Abutilon theophrasti, 408 h, 17 days after treatment; for inhibition at 75 g/ha: 75 g a.e./ha; for inhibition at 100 g/ha: 100 g a.e./ha; for inhibition at 150 g/ha: 150 g a.e./ha; for inhibition at 200 g/ha: 200 g a.e./ha. It is filed as in vivo, velvetleaf. The source says: (§1) The following greenhouse testing procedure was used for evaluating compositions of the Examples to determine herbicidal effectiveness, except where otherwise indicated.
(§2) Seeds of the plant species indicated were planted in 88 mm square pots in a soil mix which was previously sterilized and prefertilized with a 14-14-14 NPK slow release fertilizer at a rate of 3.6 kg/m3. The pots were placed in a greenhouse with sub-irrigation. About one week after emergence, seedlings were thinned as needed, including removal of any unhealthy or abnormal plants, to create a uniform series of test pots.
(§3) The plants were maintained for the duration of the test in the greenhouse where they received a minimum of 14 hours of light per day. […] Exposure temperatures were not precisely controlled but averaged about 29° C. during the day and about 21° C. during the night. Plants were sub-irrigated throughout the test to ensure adequate soil moisture levels.
(§4) Pots were assigned to different treatments in a fully randomized experimental design with 6 replications. A set of pots was left untreated as a reference against which affects of the treatments could later be evaluated.
(§5) Application of glyphosate compositions was made by spraying with a track sprayer fitted with a 9501E nozzle calibrated to deliver a spray volume of 93 liters per hectare (l/ha) at a pressure of 165 kilopascals (kPa). After treatment, pots were returned to the greenhouse until ready for evaluation.
(§6) Treatments were made using dilute aqueous compositions. These could be prepared as spray compositions directly from their ingredients, or by dilution with water of preformulated concentrate compositions.
(§7) For evaluation of herbicidal effectiveness, all plants in the test were examined by a single practiced technician, who recorded percent control, a visual measurement of the effectiveness of each treatment by comparison with untreated plants. […] The reported % control values represent the average for all replicates of each treatment.

The test system of the next experiment is ECHCF. Nature of the experiment: Greenhouse herbicidal effectiveness, ECHCF. It is filed as in vivo, Japanese millet, barnyardgrass. Particulars: for efficacy ECHCF: Table 19A, 16 days after treatment; for inhibition at 75 g/ha / inhibition at 100 g/ha / inhibition at 150 g/ha / inhibition at 200 g/ha: 408 h, 17 days after treatment; for inhibition at 75 g/ha: 75 g a.e./ha; for inhibition at 100 g/ha: 100 g a.e./ha; for inhibition at 150 g/ha: 150 g a.e./ha; for inhibition at 200 g/ha: 200 g a.e./ha.
From the text: as §1, §2, §3, §4, §5, §6, §7

In a further experiment the test system is TRZVX. The experiment in a line: Greenhouse herbicidal effectiveness, TRZVX. To be noted: Table 19A, 16 days after treatment. It is filed as in vivo, wheat.
From the text: as §1, §2, §3, §4, §5, §6, §7

The mark [1] stands for this setting: 1 g a.e./ha, tank mix OTH1 1 % v/v.
[2] abbreviates: 3 g a.e./ha, tank mix OTH1 1 % v/v.
The mark [3] stands for this setting: 5 g a.e./ha, tank mix OTH1 1 % v/v.
Where [4] appears, read: 10 g a.e./ha, tank mix OTH1 1 % v/v.
Where [5] appears, read: read-out: % inhibition ABUTH, Table 19B, OTH1 1 % v/v.
Where [6] appears, read: read-out: % inhibition ABUTH, Table 19B, no OTH22, no OTH1.
Where [7] appears, read: read-out: % inhibition ECHCF, Table 19B, OTH1 1 % v/v.
Where [8] appears, read: read-out: % inhibition ECHCF, Table 19B, no OTH22, no OTH1.
[9] abbreviates: Table 19B, OTH1 1 % v/v, read-out: % inhibition ABUTH.
[10] abbreviates: Table 19B, no OTH22, no OTH1, read-out: % inhibition ABUTH.
Where [11] appears, read: Table 19B, OTH1 1 % v/v, read-out: % inhibition ECHCF.
The mark [12] stands for this setting: Table 19B, no OTH22, no OTH1, read-out: % inhibition ECHCF.

Structures are written as SMILES. Read-outs that look alike come from different tables or passages of the source.

As to `N.N.O=C(O)C(=O)O` [OTH1], the “% inhibition ABUTH (14 DAT)” value in the experiment with ABUTH (2 g a.e./ha) was 0, 0, 0, 0%; in the experiment with ABUTH (3 g a.e./ha), 0, 0, 0, 0%; with ABUTH (4 g a.e./ha), 0, 0, 0, 0%; with ABUTH (5 g a.e./ha), 0, 0, 0, 0%. Besides, the “% inhibition ABUTH (20 DAT)” value in the experiment with ABUTH (2 g a.e./ha) is 0, 0, 0, 0%; with ABUTH (3 g a.e./ha), 0, 0, 0, 0%; with ABUTH (4 g a.e./ha) it was 0, 0, 0, 0%; in the experiment with ABUTH (5 g a.e./ha) it was 0, 0, 0, 0%.

For `COc1cc(OC)nc(NC(=O)NS(=O)(=O)c2ncccc2C(=O)N(C)C)n1` [nicosulfuron], the “efficacy ABUTH” value turned out to be 0.8 with ABUTH (1 g a.e./ha, no OTH1); 6 in the experiment with ABUTH (setting [1]); 12 in the experiment on ABUTH (3 g a.e./ha, no OTH1); 8 with ABUTH (setting [2]); 14 with ABUTH (5 g a.e./ha, no OTH1); 10 with ABUTH (setting [3]). For the same compound, the “efficacy ABUTH” value in the experiment with ABUTH (10 g a.e./ha, no OTH1) is given as 28; in the experiment with ABUTH (setting [4]), 58. Besides, the “efficacy ECHCF” value with ECHCF (1 g a.e./ha, no OTH1) is given as 0.8; in the experiment with ECHCF (setting [1]), 4; in the experiment with ECHCF (3 g a.e./ha, no OTH1), 13; in the experiment on ECHCF (setting [2]), 10; in the experiment on ECHCF (5 g a.e./ha, no OTH1), 40; in the experiment on ECHCF (setting [3]), 37. For the same compound, the “efficacy ECHCF” value in the experiment on ECHCF (10 g a.e./ha, no OTH1) worked out at 51; in the experiment with ECHCF (setting [4]), 42. Besides, the “efficacy TRZVX” value in the experiment on TRZVX (1 g a.e./ha, no OTH1) is recorded as 5; in the experiment on TRZVX (setting [1]), 3; with TRZVX (3 g a.e./ha, no OTH1) it was 15; in the experiment on TRZVX (setting [2]), 25; in the experiment with TRZVX (5 g a.e./ha, no OTH1) it was 50; in the experiment with TRZVX (setting [3]), 47. Besides, the “efficacy TRZVX” value amounted to 65 in the experiment with TRZVX (10 g a.e./ha, no OTH1) and 67 with TRZVX (setting [4]).

Turning to `CP(=O)(O)CCC(N)C(=O)O` (centres unmarked) [glufosinate], in the experiment with ABUTH (setting [5]), the inhibition at 75 g/ha was 68%, the inhibition at 100 g/ha was determined as 82%, the inhibition at 150 g/ha came to 90% and the inhibition at 200 g/ha amounted to 98%. In the experiment on ABUTH (setting [6]), the inhibition at 75 g/ha worked out at 22%, the inhibition at 100 g/ha stood at 43%, the inhibition at 150 g/ha came out at 74% and the inhibition at 200 g/ha was 89%. Further, in the experiment on ECHCF (setting [7]), the inhibition at 75 g/ha is 95%, the inhibition at 100 g/ha amounted to 96%, the inhibition at 150 g/ha worked out at 99% and the inhibition at 200 g/ha turned out to be 100%. Besides, in the experiment on ECHCF (setting [8]), the inhibition at 75 g/ha is 94%, the inhibition at 100 g/ha is 95%, the inhibition at 150 g/ha was 98% and the inhibition at 200 g/ha came to 99%.

`CCOc1cc(Oc2ccc(C(F)(F)F)cc2Cl)ccc1[N+](=O)[O-]` [oxyfluorfen]: in the experiment with ABUTH (setting [9]), the inhibition at 75 g/ha was 80%, the inhibition at 100 g/ha worked out at 82%, the inhibition at 150 g/ha stood at 87% and the inhibition at 200 g/ha was determined as 92%. In addition, in the experiment with ABUTH (setting [10]), the inhibition at 75 g/ha was 81%, the inhibition at 100 g/ha was 82%, the inhibition at 150 g/ha worked out at 84% and the inhibition at 200 g/ha stood at 91%. Also, in the experiment with ECHCF (setting [11]), the inhibition at 75 g/ha came out at 0%, the inhibition at 100 g/ha stood at 0%, the inhibition at 150 g/ha stood at 0% and the inhibition at 200 g/ha came to 2%. In the experiment with ECHCF (setting [12]), the inhibition at 75 g/ha turned out to be 0%, the inhibition at 100 g/ha was 0%, the inhibition at 150 g/ha was determined as 0% and the inhibition at 200 g/ha was found to be 3%.

With `CN(C)C(=O)Nc1ccc(Cl)c(Cl)c1` [diuron], in the experiment on ABUTH (setting [5]), the inhibition at 75 g/ha came to 0%, the inhibition at 100 g/ha stood at 0%, the inhibition at 150 g/ha is 2% and the inhibition at 200 g/ha was 10%. In addition, in the experiment on ABUTH (setting [6]), the inhibition at 75 g/ha was 0%, the inhibition at 100 g/ha is 0%, the inhibition at 150 g/ha is 5% and the inhibition at 200 g/ha was found to be 17%. In the experiment on ECHCF (setting [7]), the inhibition at 75 g/ha stood at 0%, the inhibition at 100 g/ha was 0%, the inhibition at 150 g/ha worked out at 0% and the inhibition at 200 g/ha was 0%. In the experiment on ECHCF (setting [8]), the inhibition at 75 g/ha came to 0%, the inhibition at 100 g/ha was 0%, the inhibition at 150 g/ha came out at 0% and the inhibition at 200 g/ha was 0%.

The inhibition is the share of the control response that was lost under treatment.

Values taken from patent publication US7883715B2, “Pesticide compositions containing dicarboxylic acids” (Monsanto Technology LLC, priority 2002, dated 2011).
